Source: patent US12268727B2, “Bioactive polypeptides for improvements in plant protection, growth and productivity” (priority 2017, dated 2025)
“And” between values parts separate entries of the source, which are not always exact repeats. Equal entries are not always repeated. “Also recorded” adds a separate entry of the source.

What was measured:
[1] = test system: Candidatus Liberibacter asiaticus; conditions: in vivo
[2] = test system: reactive oxygen species (ROS) production in tomato leaf tissue; experiment: ROS activity assay in tomato leaf tissue; type: cell-based
Description: Tomato leaves were excised from 4-week-old plants using a cork borer to generate 4 mm disks. Each disc was cut in half using the edge of a razor blade, and then each disc half was floated on 150 μL of water in a 96-well plate to rest overnight. The next day, the water was removed from each well just prior to polypeptide treatment. The Flg polypeptides as described in Table 66 were added to water to bring them to a final concentration of 5 nM (Table 67) and 100 nM (Table 68) in solution with luminol and HRP before adding to each treatment well. To maintain activity, the polypeptides were stored in small aliquots to avoid multiple freezing and thawing. All dilutions to obtain working concentrations were done in ultrapure water. Polypeptide solutions were stored at −20° C. for short term usage or −80° C. for long term storage. RLU values and relative ROS activity (Tables 67, 68) is reported as the average of 4 measurements.

citrus trees = type: in vivo, Citrus sinensis; Citrus×paradisi; conditions: Valencia orange and Ruby Red grapefruit, 1× and 10× injection April 2017, measured June 2018
corn [3] = experiment: Seed treatment of corn, field yield trials; type: in vivo; conditions: for yield increase vs non-treated seed: 2 hybrids; for Average Yield Bu/Ac / Average Change in Bu/Ac compared to Untreated Control: seed treatment on base ST, BECK's 5828YX; for Average Yield Bu/Ac: 1 location, four replicated trials; for Average Total Yield Bu/Ac Hybrid 1 / Average Total Yield Bu/Ac Hybrid 1 and 2 / Average Total Yield Bu/Ac Hybrid 2: seed treatment
corn [4] = experiment: Foliar application to corn in growth room, plant height (non-stress, heat and water deficit stress); conditions: for increase in plant height vs surfactant alone / Δ Height Normalized as a percentage of control height: 1 μM; for increase in plant height vs surfactant alone: V2-V3, heat and water deficit stress; for Δ Height (cm) / Δ Height Normalized as a percentage of control height: corn, heat and water deficit stress; for Δ Height (cm): 1 μM with 0.1% surfactant; for Δ Height Normalized as a percentage of control height: surfactant control = 100%; for plant height as % of control: foliar 1 μM
[5] = test system: reactive oxygen species (ROS) production in soybean leaf tissue; experiment: ROS activity assay in soybean leaf tissue (luminol/horseradish peroxidase, RLU); type: cell-based; conditions: for Fold increase over negative control: vs mock (water)
soybean [6] = experiment: Soybean nodulation, root biomass and total biomass after foliar application; type: in vivo
Description: Effective nodulation of soybean roots result in higher yields and higher quality seed production, protein and oil per seed or acre basis. This could be due to increased nitrogen fixation since nodulale formation increases nitrogen fixation. To determine whether root hair promoting bioactive priming polypeptide, RHPP (SEQ ID NO: 600) could modulate root biomass and nodulation and thereby improve nitrogen fixation, soybean plants (hybrid Morsoy 38X52 and Beck's hybrid 297R4) were treated with foliar application of RHPP (300 nM) at the R1-R2 stage of development.
RHPP bioactive priming polypeptide (SEQ ID NO: 600, originally derived from Glycine max) was applied as foliar treatment to 4-week-old hybrid soybean (Morsoy variety) with 0.1% (v/v) non-ionic surfactant ([…] SURFACE™) using a spray bottle and delivering approximately 1.25 ml/plant. The experiment was conducted using a total of 8 plants per trial per treatment group. […] Growth parameters of nodule counts, root biomass and total biomass per plant were measured at 15 days post the foliar application and compared between the foliar treatments consisting of […] SURFACE surfactant (0.1% v/v) as a control and the RHPP polypeptide (300 nM) containing the […] SURFACE surfactant (0.1% v/v). Average growth parameters as described were normalized to the control plants that received the surfactant alone treatment (Table 38).

soybean [7] = experiment: Foliar application to soybean in growth room, plant height (non-stress, heat and water deficit stress); type: in vivo; conditions: 300 nM + 0.1% ALLIGARE SURFACE
Description: Ec.Flg22 (SEQ ID NO: 527) was applied to soybean (Beck's 297NR).
Plant height (cm) was measured just prior to the foliar application delivered at 3 weeks and then again 2 weeks later when the plants were 5-weeks-old. Two replicate trials were conducted using 18 plants per trial.
Soybean plants were grown as described in Example 6. The At.PSKα polypeptide (SEQ ID NO: 598) was applied as a foliar spray to the plants at the V1-V4 stage. Soybean plants treated with foliar applications of At.PSKα and control plants treated with water and surfactant alone were then grown in conditions described in Examples 7-9 that produced a non-stress and stress (heat and water deficit) environments. Table 37 describes the percentage change or increase in height reported for soybean plants treated with At.PSKα as a foliar spray at the V1-V4 growth stage.
RHPP bioactive priming polypeptide (SEQ ID NO: 600) was also applied as foliar treatment to R1 stage hybrid soybean (Beck's 297R4) with 0.1% (v/v) non-ionic surfactant ([…] SURFACE) using a spray bottle delivering approximately 1.2 ml/plant. This experiment was performed to look at the effects of RHPP on plant growth and was conducted using a total of 18 plants per treatment group. […] R1 stage soybean plants were treated with nothing (non-treated control), […] SURFACE surfactant applied at a concentration of 0.1% (v/v) or the RHPP polypeptide (300 nM) applied in combination with […] SURFACE surfactant (0.1% v/v). Height for each plant was recorded at the time of spray and again at 16 days post foliar application and average growth parameters were compared between foliar treatments (Table 39).

[8] = polypeptide 0.25 μM (cellobiose 1 mM where combined)
[9] = polypeptide 1.0 μM (cellobiose 1 mM where combined)
[10] = 0.25 μM in seed coating slurry (0.035 fl oz of 40 μM peptide solution/unit)
[11] = 1.0 μM in seed coating slurry (0.14 fl oz of 40 μM peptide solution/unit)
[12] = soybean leaf tissue, Bt.4Q7Flg22 52.2 nM without surfactant
[13] = soybean leaves, Bt.4Q7Flg22 100 nM, No PROXEL Preservative Added
[14] = 300 nM + 0.1% v/v ALLIGARE SURFACE, Morsoy soybean, 15 days post application
[15] = 300 nM + 0.1% v/v ALLIGARE SURFACE, Morsoy soybean, 15 days post foliar application, n = 8
[16] = 300 nM, Morsoy, 15 days post application

## Bt.4Q7Flg22: Flg22 polypeptide (22 amino acids) from flagellin of Bacillus thuringiensis strain 4Q7 (DRLSSGKRINSASDDAAGLAIA; listed as Bacillus thuringiensis)
[1]
  Ct values vs control trees: slightly higher Ct counts; also recorded: significantly higher Ct values
  Percentage Reduction in CLas titer Normalized to the Control, Trial 1: 37% and 33%
  reduction in CLas titer levels: 37% and 43%
[2]; 5 nM
  ROS response: very low ROS response
[2]; 100 nM
  ROS response: high response
[2]; tomato leaf discs, 5 nM, average of 4 measurements
  Average RLU value (5 nM Flg polypeptide): 33118 RLU
[2]; tomato leaf discs, 100 nM (each, in the combination)
  Average RLU value with 100 nM Flg polypeptide: 2,118,932 (−) RLU
Citrus trees
  fruit per limb and fruit size vs untreated control: increased fruit per limb and increased fruit size
Corn [3]; 1 uM in slurry, 3 hybrids, 8 locations
  yield gain vs base seed treatment only: 4.73 Bu/Ac
Corn [3]; high rate, 1.0 μM slurry (0.14 Fl. oz per unit), 12 locations
  yield increase vs non-treated seed: 5.3 Bu/Ac
Corn [3]; low rate, 0.25 μM slurry (0.035 Fl. oz per unit), 12 locations
  yield increase vs non-treated seed: 2.1 Bu/Ac
Corn [3]; second study, 12 locations
  win rate: 50%
  yield advantage: 2.8 Bu/Ac
Corn [3]; [8]
  Average Yield Bu/Ac: 47.06 Bu/Ac
  Average Change in Bu/Ac compared to Untreated Control: +19.07 Bu/Ac
Corn [3]; [9]
  Average Yield Bu/Ac: 29.60 Bu/Ac
  Average Change in Bu/Ac compared to Untreated Control: +1.60 Bu/Ac
Corn [3]; [10]
  Average Total Yield Bu/Ac Hybrid 1: 218.36 Bu/Ac
  Average Total Yield Bu/Ac Hybrid 1 and 2: 200.62 Bu/Ac
  Average Total Yield Bu/Ac Hybrid 2: 182.88 Bu/Ac
Corn [3]; [11]
  Average Total Yield Bu/Ac Hybrid 1: 213.44 Bu/Ac
  Average Total Yield Bu/Ac Hybrid 1 and 2: 202.62 Bu/Ac
  Average Total Yield Bu/Ac Hybrid 2: 187.48 Bu/Ac
Corn [4]; Trial 1
  increase in plant height vs surfactant alone: ~13%
  Δ Height (cm): +11.68 cm
  Δ Height Normalized as a percentage of control height: 112.9%
Corn [4]; Trial 3
  increase in plant height vs surfactant alone: > 33%
  Δ Height (cm): +11.03 cm
  Δ Height Normalized as a percentage of control height: 133.2%
Corn [4]; Trial 2
  Δ Height (cm): +9.28 cm
  Δ Height Normalized as a percentage of control height: 99.5%
Corn [4]; heat/water stressed conditions
  plant height as % of control: ~108%
Corn [4]; non-stressed conditions
  plant height as % of control: 108% and 102%
[5]; 52.2 nM Bt.4Q7Flg22, NIS90:10 0.25% or 0.5% v/v, Silwet-L77 0.025% or 0.1% v/v
  fold-increase in ROS production over mock-treated control: 6.8 ×
[5]; 100 nM Bt.4Q7Flg22, Proxel compatibility test
  fold increase in RLU over mock treatment: 17.0 ×
[5]; Table 33, RLU relative to native Bt.4Q7Flg22 = 100
  Avg. Activity (%) Soybean (297 R4) 100 nM polypeptide: 100%
[5]; Table 35, single polypeptides and combinations, Bt.4Q7Flg22 = 100
  Avg. Activity (%) Soybean (297 R4) 100 nM polypeptide: 100%
[5]; soy leaf tissue, 10 nM
  relative ROS activity: 0.04 ×
[5]; soybean leaf discs, from best-fit regression, Table 72 data set
  Polypeptide Concentration (nM) for 5 × 10^4 total RLU production: 31.4 nM
[5]; [12]
  Average RLU values: 350503 RLU
  Fold increase over negative control: (6.8X)
[5]; [13]
  Average RLU values: 81887 RLU
  Fold increase over negative control: (17.0X)

## GGIRAAPTGNER (Glycine max) [RHPP, Root Hair Promoting Peptide from Glycine max]
Soybean [6]; [14]
  Average nodule count per plant, RHPP treatment normalized as a percentage of the surfactant control: 170.42%
  Root biomass, RHPP treatment normalized as a percentage of the surfactant control: 120.57%
  Total biomass, RHPP treatment normalized as a percentage of the surfactant control: 108.44%
Soybean [6]; [15]
  Average nodule count per plant: 15.13
  Root biomass: 2.13 g
  Total biomass: 46.24 g
Soybean [6]; [16]
  increase in root biomass normalized to control: more than 20%
  increase in total biomass normalized to control: 8%
  number of nodules per plant vs surfactant control: approximately two times the number of nodules
Soybean [7]; R1, 16 days post application
  plant height and change in plant height vs surfactant alone and non-treated: increased plant growth (plant height)
Soybean [7]; soybean Beck's 297R4, R1 stage, 16 days post foliar application, n = 18
  Height (cm): 19.9 cm
Soybean [7]; soybean Beck's 297R4, R1 stage, spray to 16 days post application, n = 18
  Change in height (cm): 4.6 cm
